“And” between values parts separate entries of the source, which are not always exact repeats. Equal values may be shown once. Inconclusive results and toxic doses are left out.
System: P388 leukemia ip, CD2F1 mice, survival T/C
Assay: NCI In Vivo Anticancer Drug Screen. Data for tumor model P388 Leukemia (intraperitoneal) in CD2F1 (CDF1) mice
Conditions: endpoint: median survival time, higher = longer survival
How it was run: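 Mice carrying the transplanted tumor received test compound or vehicle. Survival was recorded in each group, and the value is the treated-group measurement divided by that of the vehicle-treated control group.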

[1] = dose: 25.0 mg/kg/injection, schedule: Q01DX009 (ip), vehicle: saline with Tween-80
[2] = dose: 25.0 mg/kg/injection, schedule: Q04DX003 (ip), vehicle: saline with Tween-80
[3] = dose: 50.0 mg/kg/injection, schedule: Q04DX003 (ip), vehicle: saline with Tween-80
[4] = dose: 50.0 mg/kg/injection, schedule: Q01DX005 (ip), vehicle: saline with Tween-80
[5] = dose: 100.0 mg/kg/injection, schedule: Q01DX005 (ip), vehicle: saline with Tween-80
[6] = dose: 50.0 mg/kg/injection, schedule: Q01DX009 (ip), vehicle: saline with Tween-80
[7] = dose: 100.0 mg/kg/injection, schedule: Q01DX009 (ip), vehicle: saline with Tween-80
[8] = dose: 60.0 mg/kg/injection, schedule: Q01DX005 (ip), vehicle: saline with Tween-80
[9] = dose: 120.0 mg/kg/injection, schedule: Q01DX005 (ip), vehicle: saline with Tween-80
[10] = dose: 12.5 mg/kg/injection, schedule: Q01DX009 (ip), vehicle: saline
[11] = dose: 100.0 mg/kg/injection, schedule: Q01DX009 (ip), vehicle: Klucel (hydroxypropylcellulose) (HPC)
[12] = dose: 7.5 mg/kg/injection, schedule: Q01DX009 (ip), vehicle: saline with Tween-80
[13] = dose: 15.0 mg/kg/injection, schedule: Q01DX009 (ip), vehicle: saline with Tween-80
[14] = dose: 30.0 mg/kg/injection, schedule: Q01DX009 (ip), vehicle: saline with Tween-80

Q: What does the source list for O=C(Nc1cccc2ccccc12)OC1CC2CCC1C2Cl (stereo not given)?
A: T/C (dose: 25.0 mg/kg/injection, schedule: Q01DX009 (ip), vehicle: other): 93 % of control; T/C (dose: 50.0 mg/kg/injection, schedule: Q01DX009 (ip), vehicle: other): 87 % of control; T/C (dose: 100.0 mg/kg/injection, schedule: Q01DX009 (ip), vehicle: other): 87 % of control; T/C (dose: 200.0 mg/kg/injection, schedule: Q01DX009 (ip), vehicle: other): 88 % of control; T/C (dose: 400.0 mg/kg/injection, schedule: Q01DX009 (ip), vehicle: other): 91 % of control

Q: Which results are given for CCCCNC1Cc2ccccc2CC1O (stereo not given)?
A: T/C (dose: 0.79 mg/kg/injection, schedule: Q01DX005 (ip), vehicle: saline): 100 % of control and 107 % of control; T/C (dose: 1.56 mg/kg/injection, schedule: Q01DX005 (ip), vehicle: saline): 100 % of control and 104 % of control; T/C (dose: 3.12 mg/kg/injection, schedule: Q01DX005 (ip), vehicle: saline): 101 % of control and 105 % of control and 115 % of control; T/C (dose: 6.25 mg/kg/injection, schedule: Q01DX005 (ip), vehicle: saline): 100 % of control and 108 % of control and 121 % of control; T/C (dose: 12.5 mg/kg/injection, schedule: Q01DX005 (ip), vehicle: saline): 104 % of control

Q: What does the source list for Nc1nc(=S)c2ncn(C3OC(COC(=O)c4ccc(Cl)cc4)C(OC(=O)c4ccc(Cl)cc4)C3OC(=O)c3ccc(Cl)cc3)c2[nH]1 (stereo not given)?
A: T/C [1]: 122 % of control; T/C [2]: 95 % of control; T/C [3]: 100 % of control; T/C (dose: 100.0 mg/kg/injection, schedule: Q04DX003 (ip), vehicle: saline with Tween-80): 104 % of control; T/C (dose: 132.0 mg/kg/injection, schedule: Q04DX003 (ip), vehicle: saline with Tween-80): 116 % of control; T/C (dose: 400.0 mg/kg/injection, schedule: Q04DX003 (ip), vehicle: saline with Tween-80): 104 % of control

Q: What does the source list for CCOc1c(N=Nc2cccc([N+](=O)[O-])c2)c(C)nn1C(N)=S?
A: T/C (dose: 15.0 mg/kg/injection, schedule: Q01DX005 (ip), vehicle: Klucel + Tween-80): 92 % of control; T/C (dose: 30.0 mg/kg/injection, schedule: Q01DX005 (ip), vehicle: Klucel + Tween-80): 94 % of control

Q: Which results are given for O=C1c2ccccc2C(=O)c2c1cc1c(O)c(CN3CCCC3)ccc1c2O?
A: T/C [4]: 92 % of control; T/C [5]: 89 % of control

Q: With CCSc1ccc(N2C(N)=NC(N)=NC2(C)C)cc1 as the molecule, how does the T/C (dose: 6.25 mg/kg/injection, schedule: Q01DX005 (ip), vehicle: saline with Tween-80) read?
A: 103 % of control

Q: What about the T/C (dose: 12.5 mg/kg/injection, schedule: Q01DX005 (ip), vehicle: saline with Tween-80) of the same molecule?
A: 103 % of control

Q: What about the T/C (dose: 25.0 mg/kg/injection, schedule: Q01DX005 (ip), vehicle: saline with Tween-80) of the same molecule?
A: 118 % of control

Q: Which T/C (dose: 100.0 mg/kg/injection, schedule: Q04DX002 (ip), vehicle: saline with Tween-80) does the source give for CN1C2CCC1C(C(=O)O)C(O)C2 (stereo not given) here?
A: 101 % of control

Q: What about the T/C (dose: 200.0 mg/kg/injection, schedule: Q04DX002 (ip), vehicle: saline with Tween-80) of the same molecule?
A: 96 % of control

Q: What about the T/C (dose: 400.0 mg/kg/injection, schedule: Q04DX002 (ip), vehicle: saline with Tween-80) of the same molecule?
A: 92 % of control

Q: Which T/C (dose: 12.5 mg/kg/injection, schedule: Q01DX005 (ip), vehicle: DMSO) does the source give for COC(=O)c1cc2c3c(ccc2[nH]1)N(C(=O)c1cc2c4c(ccc2[nH]1)N(C(=O)c1cc2c5c(ccc2[nH]1)N(C(N)=O)CC5)CC4)CC3 here?
A: 110 % of control

Q: What about the T/C (dose: 25.0 mg/kg/injection, schedule: Q01DX005 (ip), vehicle: DMSO) of the same molecule?
A: 111 % of control

Q: What about the T/C (dose: 50.0 mg/kg/injection, schedule: Q01DX005 (ip), vehicle: DMSO) of the same molecule?
A: 105 % of control

Q: What about the T/C (dose: 100.0 mg/kg/injection, schedule: Q01DX005 (ip), vehicle: DMSO) of the same molecule?
A: 112 % of control

Q: C/C(=C\[P+](c1ccccc1)(c1ccccc1)c1ccccc1)N1CC1 was tested. Which T/C (dose: 6.0 mg/kg/injection, schedule: Q01DX001 (ip), vehicle: saline with Tween-80) did it give?
A: 107 % of control and 115 % of control

Q: And the T/C (dose: 9.0 mg/kg/injection, schedule: Q01DX001 (ip), vehicle: saline with Tween-80)?
A: 101 % of control and 113 % of control

Q: What about the T/C (dose: 12.0 mg/kg/injection, schedule: Q01DX001 (ip), vehicle: saline with Tween-80) of the same molecule?
A: 105 % of control and 108 % of control

Q: What about the T/C (dose: 12.5 mg/kg/injection, schedule: Q01DX001 (ip), vehicle: saline with Tween-80) of the same molecule?
A: 123 % of control

Q: And the T/C (dose: 18.0 mg/kg/injection, schedule: Q01DX001 (ip), vehicle: saline with Tween-80)?
A: 105 % of control and 113 % of control

Q: Which T/C [4] does the source give for CCC(=O)C1C(=O)CC(=O)C(C)C1c1ccccc1OC (stereo not given) here?
A: 92 % of control

Q: And the T/C [5]?
A: 90 % of control

Q: What about the T/C (dose: 200.0 mg/kg/injection, schedule: Q01DX005 (ip), vehicle: saline with Tween-80) of the same molecule?
A: 87 % of control

Q: What does the source list for CC(C)SC(=S)S(=O)(=O)c1ccc(Cl)cc1?
A: T/C [1]: 104 % of control and 110 % of control; T/C [6]: 107 % of control (2×) and 111 % of control; T/C [7]: 104 % of control and 114 % of control and 121 % of control

Q: Which results are given for N#CC(=Nc1cccc(F)c1)C1=C(O)c2ccccc2C1=O?
A: T/C [8]: 100 % of control; T/C [9]: 97 % of control

Q: What does the source list for c1cc[c]([Sn]([NH]c2ncnc3[nH]cnc23)([NH]c2ncnc3[nH]cnc23)[c]2ccccc2)cc1?
A: T/C [10]: 123 % of control; T/C [11]: 196 % of control

Q: For C=C1C(=O)C23C(OC(=O)c4ccccc4)C1CCC2C12COC3(O)C(O)C1C(C)(C)CCC2O (stereo not given), which T/C (dose: 3.75 mg/kg/injection, schedule: Q01DX009 (ip), vehicle: saline with Tween-80) is on record?
A: 103 % of control and 107 % of control and 110 % of control

Q: And the T/C [12]?
A: 102 % of control and 112 % of control and 120 % of control

Q: And the T/C [13]?
A: 100 % of control and 118 % of control and 119 % of control

Q: And the T/C [14]?
A: 109 % of control and 115 % of control

Q: For C/C(=C\C(=O)c1ccccc1)Nc1ccccc1Cl, which T/C [10] is on record?
A: 100 % of control

Q: What about the T/C (dose: 25.0 mg/kg/injection, schedule: Q01DX009 (ip), vehicle: saline) of the same molecule?
A: 102 % of control

Q: What about the T/C (dose: 50.0 mg/kg/injection, schedule: Q01DX009 (ip), vehicle: saline) of the same molecule?
A: 89 % of control

Q: With O=S(=O)(O)c1ccc2c(N=Nc3ccccc3[As](=O)(O)O)c(O)c(S(=O)(=O)O)cc2c1 as the molecule, how does the T/C [6] read?
A: 104 % of control

Q: What about the T/C [7] of the same molecule?
A: 113 % of control

Q: With Cc1cccc(Cl)c1NC1=NCCN1C(=O)CC(=O)c1ccccc1 as the molecule, how does the T/C (dose: 3.13 mg/kg/injection, schedule: Q01DX009 (ip), vehicle: Klucel (hydroxypropylcellulose) (HPC)) read?
A: 107 % of control

Q: What about the T/C (dose: 6.25 mg/kg/injection, schedule: Q01DX009 (ip), vehicle: Klucel (hydroxypropylcellulose) (HPC)) of the same molecule?
A: 105 % of control

Q: What about the T/C (dose: 12.5 mg/kg/injection, schedule: Q01DX009 (ip), vehicle: Klucel (hydroxypropylcellulose) (HPC)) of the same molecule?
A: 99 % of control and 100 % of control

Q: O=C(O)c1ccc(NC(=O)C2C(=O)C(=O)N(c3ccc(C(=O)O)cc3)C2=O)cc1 (stereo not given) was tested. Which T/C (dose: 50.0 mg/kg/injection, schedule: Q01DX009 (ip), vehicle: Klucel (hydroxypropylcellulose) (HPC)) did it give?
A: 104 % of control

Q: And the T/C [11]?
A: 100 % of control

Q: What about the T/C (dose: 200.0 mg/kg/injection, schedule: Q01DX009 (ip), vehicle: Klucel (hydroxypropylcellulose) (HPC)) of the same molecule?
A: 103 % of control

Q: What does the source list for CC(C)(C)CC(C)(C)c1ccc(O)cc1O?
A: T/C (dose: 12.5 mg/kg/injection, schedule: Q04DX003 (ip), vehicle: saline with Tween-80): 110 % of control; T/C [2]: 105 % of control; T/C [3]: 120 % of control

Q: Clc1ccc(OCC(COc2ccc(Cl)cc2)(COc2ccc(Cl)cc2)COc2ccc(Cl)cc2)cc1 was tested. Which T/C [12] did it give?
A: 99 % of control

Q: What about the T/C [13] of the same molecule?
A: 104 % of control

Q: What about the T/C [14] of the same molecule?
A: 95 % of control

Q: Which results are given for Cc1cc(Cl)cc2[s+]snc12?
A: T/C [8]: 100 % of control; T/C [9]: 101 % of control; T/C (dose: 240.0 mg/kg/injection, schedule: Q01DX005 (ip), vehicle: saline with Tween-80): 92 % of control

Q: With NC(Cc1ccc2c(c1)OCO2)c1ccc2c(c1)OCO2 (stereo not given) as the molecule, how does the T/C (dose: 50.0 mg/kg/injection, schedule: Q01DX005 (ip), vehicle: Klucel (hydroxypropylcellulose) (HPC)) read?
A: 101 % of control

Q: And the T/C (dose: 100.0 mg/kg/injection, schedule: Q01DX005 (ip), vehicle: Klucel (hydroxypropylcellulose) (HPC))?
A: 99 % of control

Q: And the T/C (dose: 200.0 mg/kg/injection, schedule: Q01DX005 (ip), vehicle: Klucel (hydroxypropylcellulose) (HPC))?
A: 101 % of control

Q: For CC(C(=O)NN)C(C)(C)C (stereo not given), which T/C (dose: 100.0 mg/kg/injection, schedule: Q01DX001 (ip), vehicle: saline with Tween-80) is on record?
A: 96 % of control

Q: And the T/C (dose: 200.0 mg/kg/injection, schedule: Q01DX001 (ip), vehicle: saline with Tween-80)?
A: 99 % of control

Q: What about the T/C (dose: 400.0 mg/kg/injection, schedule: Q01DX001 (ip), vehicle: saline with Tween-80) of the same molecule?
A: 99 % of control
